Earlier results as cited in article doi:10.1101/2023.05.15.540887, “Comparative analysis of drug-like EP300/CREBBP acetyltransferase inhibitors” (bioRxiv, 2023).

Legend:
Design in all cases: method as in ref 29 (a number printed in a supplementary file, which may have a reference list of its own: not looked up in the article's list)
SK-MEL-5 = conditions: Melanoma SK-MEL-5; highest log conc -4.0; NCI-60 screen data; cited from earlier work
HT29 = conditions: Colon HT29; highest log conc -4.0; NCI-60 screen data; cited from earlier work
A549/ATCC = conditions: Non-SmallCellLung A549/ATCC; highest log conc -4.0; NCI-60 screen data; cited from earlier work
NCI-H460 = conditions: Non-SmallCellLung NCI-H460; highest log conc -4.0; NCI-60 screen data; cited from earlier work
EKVX = conditions: Non-SmallCellLung EKVX; highest log conc -4.0; NCI-60 screen data; cited from earlier work
K-562 = conditions: Leukemia K-562; highest log conc -4.0; NCI-60 screen data; cited from earlier work
NCI/ADR-RES = conditions: Ovarian NCI/ADR-RES; highest log conc -4.0; NCI-60 screen data; cited from earlier work
HS578T = conditions: Breast HS578T; highest log conc -4.0; NCI-60 screen data; cited from earlier work
SN12C = conditions: Renal SN12C; highest log conc -4.0; NCI-60 screen data; cited from earlier work
HOP-92 = conditions: Non-SmallCellLung HOP-92; highest log conc -4.0; NCI-60 screen data; cited from earlier work
OVCAR-4 = conditions: Ovarian OVCAR-4; highest log conc -4.0; NCI-60 screen data; cited from earlier work
IGROV1 = conditions: Ovarian IGROV1; highest log conc -4.0; NCI-60 screen data; cited from earlier work
SNB-19 = conditions: CNS SNB-19; highest log conc -4.0; NCI-60 screen data; cited from earlier work
RXF393 = conditions: Renal RXF393; highest log conc -4.0; NCI-60 screen data; cited from earlier work
A498 = conditions: Renal A498; highest log conc -4.0; NCI-60 screen data; cited from earlier work
UACC-257 = conditions: Melanoma UACC-257; highest log conc -4.0; NCI-60 screen data; cited from earlier work
MDA-MB-231/ATCC = conditions: Breast MDA-MB-231/ATCC; highest log conc -4.0; NCI-60 screen data; cited from earlier work
KM12 = conditions: Colon KM12; highest log conc -4.0; NCI-60 screen data; cited from earlier work
OVCAR-5 = conditions: Ovarian OVCAR-5; highest log conc -4.0; NCI-60 screen data; cited from earlier work
DU-145 = conditions: Prostate DU-145; highest log conc -4.0; NCI-60 screen data; cited from earlier work
SW-620 = conditions: Colon SW-620; highest log conc -4.0; NCI-60 screen data; cited from earlier work

Compound	GI50 AVGDATA (SK-MEL-5)	GI50 AVGDATA (HT29)	GI50 AVGDATA (A549/ATCC)	GI50 AVGDATA (NCI-H460)	GI50 AVGDATA (EKVX)	GI50 AVGDATA (K-562)	GI50 AVGDATA (NCI/ADR-RES)	GI50 AVGDATA (HS578T)	GI50 AVGDATA (SN12C)	GI50 AVGDATA (HOP-92)	GI50 AVGDATA (OVCAR-4)	GI50 AVGDATA (IGROV1)	GI50 AVGDATA (SNB-19)	GI50 AVGDATA (RXF393)	GI50 AVGDATA (A498)	GI50 AVGDATA (UACC-257)	GI50 AVGDATA (MDA-MB-231/ATCC)	GI50 AVGDATA (KM12)	GI50 AVGDATA (OVCAR-5)	GI50 AVGDATA (DU-145)	other results
COC(=O)N1c2ccc3c(nc(Cc4ccccc4)n3[C@H]3CCC[C@H](C(=O)O)C3)c2CC[C@@H]1C [FT-6876]	-4.99	-5.26	-4.56	-4.63	-4.75	-5.3	-4.19	-5.49	-4.76	-5.79	-5.17	-4.68	-4.9	-4.91	-4.91	-4.83	-4.8	-4.79	-4.51	-4.03	GI50 AVGDATA (SW-620): -4.33
Cc1sc2c(c1C)C(c1ccc(Cl)cc1)=N[C@@H](CC(=O)OC(C)(C)C)c1nnc(C)n1-2 [JQ-1]	-6.47	-7.01	-6.5	-6.22	-5.93	-7.24	-6.4	-7.25	-5.71	-7.74	-6.82	-6.19	-6.38	-6.13	-7.21	-6.83	-6.52	-6.02	-4.98	-5.07	GI50 AVGDATA (SW-620): -5.39
CO[C@H]1CC[C@H](n2c([C@@H]3CCCC(=O)N3c3ccc(F)c(F)c3)nc3cc(-c4c(C)noc4C)ccc32)CC1 [inobrodib]	-5.24	-5.59	-4.93	-4.58	-5.4	-5.55	-4.87	-5.68	-4.99	-5.69	-6.11	-5.34	-5.03	-5.32	-5.22	-5.59	-5.07	-4.86	-4.77	-4.77	GI50 AVGDATA (SW-620): -4.72
